{"source": "patent US6251853A", "about": "“PTX sensitive G proteins, the production and use thereof” (priority 1996, dated 2001)", "key": {"[1]": {"tested_on": "PTX-sensitive G proteins", "assay": "mastoparan 7-stimulated [35S]GTPγS binding to isolated cell membranes from normotensives and hypertensives", "type": "biochemical, human", "description": "(§1) A detailed characterization was carried out of the activation of G proteins from cells of normotensive subjects and hypertensive patients. For this purpose, the stimulated incorporation of radiolabeled [^35 S] GTPγS was quantified by the method described by Wieland et al. (Wieland, T., Liedel, K., Xaldenberg-Stasch, S., Meyer zu Heringdorf, D., Schmidt, M., and Jakobs, K. E. Analysis of receptor-G protein interactions in permeabilized cells. Naunyn-Schmiedeberg's Arch.Pharmacol. 351:329-336,1995). G Proteins were activated initially by stimulating cells which had been permeabilized with digitonin using the peptide mastoparan 7. This peptide simulates the configuration of an activated G protein-coupled receptor so that it can be used to induce direct G protein activation independent of receptors (Ross, E. M. and Higashijima, T. Regulation of G protein activation by mastoparan and other cationic peptides. Methods Enzymol. 237:27-38, 1994). The binding of GTPγS induced by MAS-7 is completely PTX-sensitive so that it can be used to quantify the activation of heterotrimeric G proteins of the Gi type. […] MAS-7 induces strong [^35 S] GTPγS binding on HT cells with an EC50 of about 5 μm (FIG. 2). Maximum binding is reached at about 25 to 50 μm MAS-7. In contrast to this, the concentration required for the same [^35 S] GTPγS binding to NT cells are [sic] 10 times higher (FIG. 2).\nGTPγS to isolated cell membranes from normotensives and hypertensives. It is evident that the maximum stimulated binding of [^35 S] GTPγS to membranes from hypertensives occurs at lower concentrations of GDP (about 0.2 μmol/l), where a concentration of 1 μmol/l GDP is required for the same effect in normotensives.\nIn a similar way, the maximum binding, stimulated by mastoparan 7, of [^35 S] GTPγS to membrane preparations from hypertensive cells a low concentration of free Mg^2+ (about 0.01 mmol/l), while a free Mg^2+ concentration of 0.1 mmol/l is necessary for the same maximum binding of [^35 S] GTPγS to membranes from normotensive cells (FIG. 5)."}, "[2]": {"tested_on": "PTX-sensitive G proteins (heterotrimeric G proteins of the Gi type)", "assay": "mastoparan 7-stimulated [35S]GTPγS binding to digitonin-permeabilized cells from normotensives and hypertensives", "type": "cell-based, human", "description": "as §1\nGTPγS to cell lines from normotensives (NT) and hypertensives (HT).\nThe binding of [^35 S] GTPγS to hypertensive cells is distinctly speeded up (rate constants 0.005 s^-1 in the normotensive versus 0.01 s^-1 in the hypertensive state)."}}}
{"molecule": "Nc1nc2c(ncn2[C@@H]2O[C@H](COP(=O)(O)OP(=O)(O)O)[C@@H](O)[C@H]2O)c(=O)[nH]1", "note": "[GDP]", "values": [{"measurement": "GDP concentration at which maximum mastoparan 7-stimulated [35S]GTPγS binding occurs", "setting": "[1]; membranes from hypertensives", "result": "about 0.2 μmol/l"}, {"measurement": "GDP concentration required for maximum mastoparan 7-stimulated [35S]GTPγS binding", "setting": "[1]; membranes from normotensives", "result": 1, "unit": "µmol/L"}]}
{"molecule": "[Mg+2]", "note": "[Mg^2+]", "values": [{"measurement": "free Mg2+ concentration for maximum mastoparan 7-stimulated [35S]GTPγS binding", "setting": "[1]; membrane preparations from hypertensive cells", "result": "about 0.01 mmol/l"}, {"measurement": "free Mg2+ concentration for maximum mastoparan 7-stimulated [35S]GTPγS binding", "setting": "[1]; membranes from normotensive cells", "result": 0.1, "unit": "mmol/L"}]}
{"molecule": "mastoparan 7 [MAS-7]", "values": [{"measurement": "EC50", "setting": "[2]; HT (hypertensive) cells, digitonin-permeabilized, read-out: EC50 of induced [35S]GTPγS binding", "result": "~5", "unit": "µM"}, {"measurement": "concentration required for the same [35S]GTPγS binding to NT cells, relative to HT cells", "setting": "[2]; NT (normotensive) versus HT cells", "result": 10, "unit": "times higher"}, {"measurement": "rate constant of stimulated [35S]GTPγS binding", "setting": "[2]; hypertensive state", "result": 0.01, "unit": "s⁻¹"}, {"measurement": "rate constant of stimulated [35S]GTPγS binding", "setting": "[2]; normotensive state", "result": 0.005, "unit": "s⁻¹"}]}
